Laboratory results from ChEMBL document CHEMBL1201862, “PubChem BioAssay data set” (2004).
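Briefly, cells in 96-well plates were exposed to five compound concentrations for 48 h, and endpoints were estimated by linear interpolation. At the GI50, growth is halved.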 Active and inactive are the calls of the source. Cut-off read from the data, not from the text of the source: active = GI50 up to about 1.1 µM and inactive = higher.

How the values were obtained:
Assay in all cases: growth of human tumour cells (NCI), 48 h
786-0 = system: 786-0
A498 = system: A498
A549 = system: A549
ACHN = system: ACHN
CAKI-1 = system: CAKI-1
CCRF-CEM = system: CCRF-CEM
COLO 205 = system: COLO 205
DLD-1 = system: DLD-1
DMS-114 = system: DMS-114
DMS-273 = system: DMS-273
EKVX = system: EKVX
HCC 2998 = system: HCC 2998
HCT-116 = system: HCT-116
HCT-15 = system: HCT-15
HL-60 = system: HL-60
HOP-18 = system: HOP-18
HOP-62 = system: HOP-62
HOP-92 = system: HOP-92
HT-29 = system: HT-29
IGROV-1 = system: IGROV-1
K562 = system: K562
KM-20L2 = system: KM-20L2
KM12 = system: KM12
LOX IMVI = system: LOX IMVI
LXFL 529 = system: LXFL 529
M14 = system: M14
M19-MEL = system: M19-MEL
MOLT-4 = system: MOLT-4
Malme-3M = system: Malme-3M
NCI-H226 = system: NCI-H226
NCI-H23 = system: NCI-H23
NCI-H460 = system: NCI-H460
NCI-H522 = system: NCI-H522
OVCAR-3 = system: OVCAR-3
OVCAR-4 = system: OVCAR-4
OVCAR-5 = system: OVCAR-5
OVCAR-8 = system: OVCAR-8
RXF 393 = system: RXF 393
RXF 631 = system: RXF 631
SF-268 = system: SF-268
SF-295 = system: SF-295
SF-539 = system: SF-539
SK-MEL-28 = system: SK-MEL-28
SK-MEL-2 = system: SK-MEL-2
SK-MEL-5 = system: SK-MEL-5
SK-OV-3 = system: SK-OV-3
SN12C = system: SN12C
SNB-19 = system: SNB-19
SNB-75 = system: SNB-75
SNB-78 = system: SNB-78
SR = system: SR
SW-620 = system: SW-620
TK-10 = system: TK-10
U-251 = system: U-251
UACC-257 = system: UACC-257
UACC-62 = system: UACC-62
UO-31 = system: UO-31
RPMI-8226 = system: RPMI-8226
XF498 = system: XF498

C=CCN1C(=O)C/C(=C2/CCC(=O)N2CC=C)C1=O
GI50 (786-0): > 100 µM (inactive)
GI50 (A498): > 100 µM (inactive)
GI50 (A549): > 100 µM (inactive)
GI50 (ACHN): > 100 µM (inactive)
GI50 (CAKI-1): > 100 µM (inactive)
GI50 (CCRF-CEM): > 100 µM (inactive)
GI50 (COLO 205): > 100 µM (inactive)
GI50 (DLD-1): > 100 µM (inactive)
GI50 (DMS-114): > 100 µM (inactive)
GI50 (DMS-273): > 100 µM (inactive)
GI50 (EKVX): > 100 µM (inactive)
GI50 (HCC 2998): > 100 µM (inactive)
GI50 (HCT-116): > 100 µM (inactive)
GI50 (HCT-15): > 100 µM
GI50 (HL-60): > 100 µM (inactive)
GI50 (HOP-18): > 100 µM (inactive)
GI50 (HOP-62): 88.7 µM (inactive)
GI50 (HOP-92): > 100 µM (inactive)
GI50 (HT-29): > 100 µM (inactive)
GI50 (IGROV-1): > 100 µM (inactive)
GI50 (K562): > 100 µM (inactive)
GI50 (KM-20L2): > 100 µM (inactive)
GI50 (KM12): > 100 µM (inactive)
GI50 (LOX IMVI): > 100 µM (inactive)
GI50 (LXFL 529): > 100 µM (inactive)
GI50 (M14): > 100 µM (inactive)
GI50 (M19-MEL): > 100 µM (inactive)
GI50 (MOLT-4): > 100 µM (inactive)
GI50 (Malme-3M): > 100 µM (inactive)
GI50 (NCI-H226): > 100 µM (inactive)
GI50 (NCI-H23): > 100 µM (inactive)
GI50 (NCI-H460): > 100 µM (inactive)
GI50 (NCI-H522): > 100 µM (inactive)
GI50 (OVCAR-3): > 100 µM (inactive)
GI50 (OVCAR-4): > 100 µM (inactive)
GI50 (OVCAR-5): > 100 µM (inactive)
GI50 (OVCAR-8): > 100 µM (inactive)
GI50 (RXF 393): > 100 µM (inactive)
GI50 (RXF 631): > 100 µM (inactive)
GI50 (SF-268): > 100 µM (inactive)
GI50 (SF-295): > 100 µM (inactive)
GI50 (SF-539): > 100 µM (inactive)
GI50 (SK-MEL-28): > 100 µM (inactive)
GI50 (SK-MEL-2): > 100 µM (inactive)
GI50 (SK-MEL-5): > 100 µM (inactive)
GI50 (SK-OV-3): > 100 µM (inactive)
GI50 (SN12C): > 100 µM (inactive)
GI50 (SNB-19): > 100 µM (inactive)
GI50 (SNB-75): > 100 µM (inactive)
GI50 (SNB-78): > 100 µM (inactive)
GI50 (SR): > 100 µM (inactive)
GI50 (SW-620): > 100 µM (inactive)
GI50 (TK-10): > 100 µM (inactive)
GI50 (U-251): > 100 µM (inactive)
GI50 (UACC-257): > 100 µM (inactive)
GI50 (UACC-62): > 100 µM (inactive)
GI50 (UO-31): > 100 µM (inactive)

N#CCCc1nc2ccc(Br)cc2c(=O)n1CCO
GI50 (786-0): > 100 µM (inactive)
GI50 (A549): > 100 µM (inactive)
GI50 (CAKI-1): > 100 µM (inactive)
GI50 (CCRF-CEM): > 100 µM (inactive)
GI50 (COLO 205): > 100 µM (inactive)
GI50 (DLD-1): > 100 µM (inactive)
GI50 (DMS-114): > 100 µM (inactive)
GI50 (EKVX): > 100 µM (inactive)
GI50 (HCC 2998): > 100 µM (inactive)
GI50 (HCT-15): > 100 µM
GI50 (HL-60): > 100 µM (inactive)
GI50 (HOP-62): > 100 µM (inactive)
GI50 (HOP-92): > 100 µM (inactive)
GI50 (IGROV-1): > 100 µM (inactive)
GI50 (K562): > 100 µM (inactive)
GI50 (KM12): > 100 µM (inactive)
GI50 (LOX IMVI): > 100 µM (inactive)
GI50 (LXFL 529): > 100 µM (inactive)
GI50 (M14): > 100 µM (inactive)
GI50 (M19-MEL): > 100 µM (inactive)
GI50 (MOLT-4): > 100 µM (inactive)
GI50 (Malme-3M): > 100 µM (inactive)
GI50 (NCI-H226): > 100 µM (inactive)
GI50 (NCI-H23): > 100 µM (inactive)
GI50 (NCI-H522): > 100 µM (inactive)
GI50 (OVCAR-3): > 100 µM (inactive)
GI50 (OVCAR-4): > 100 µM (inactive)
GI50 (OVCAR-8): > 100 µM (inactive)
GI50 (RPMI-8226): > 100 µM (inactive)
GI50 (RXF 393): > 100 µM (inactive)
GI50 (RXF 631): > 100 µM (inactive)
GI50 (SF-268): > 100 µM (inactive)
GI50 (SF-295): > 100 µM (inactive)
GI50 (SF-539): > 100 µM (inactive)
GI50 (SK-MEL-28): > 100 µM (inactive)
GI50 (SK-MEL-2): > 100 µM (inactive)
GI50 (SK-MEL-5): > 100 µM (inactive)
GI50 (SK-OV-3): > 100 µM (inactive)
GI50 (SN12C): > 100 µM (inactive)
GI50 (SNB-75): > 100 µM (inactive)
GI50 (SNB-78): > 100 µM (inactive)
GI50 (SW-620): > 100 µM (inactive)
GI50 (TK-10): > 100 µM (inactive)
GI50 (UACC-257): > 100 µM (inactive)
GI50 (UACC-62): > 100 µM (inactive)
GI50 (UO-31): > 100 µM (inactive)
GI50 (XF498): 95.7 µM (inactive)

COc1ccc(/C=C\c2cc(OC)c(O[Si](C)(C)C(C)(C)C)c(OC)c2)cc1
GI50 (786-0): 39.9 µM (inactive)
GI50 (A498): 21 µM (inactive)
GI50 (A549): 38.6 µM (inactive)
GI50 (ACHN): 31.2 µM (inactive)
GI50 (CAKI-1): 49.3 µM (inactive)
GI50 (CCRF-CEM): 23.7 µM (inactive)
GI50 (COLO 205): 68.9 µM (inactive)
GI50 (DLD-1): 45.3 µM (inactive)
GI50 (DMS-114): 20.3 µM (inactive)
GI50 (DMS-273): 44.4 µM (inactive)
GI50 (EKVX): 70 µM (inactive)
GI50 (HCC 2998): 26.1 µM (inactive)
GI50 (HCT-116): 33.7 µM (inactive)
GI50 (HOP-62): > 100 µM (inactive)
GI50 (HOP-92): 28.3 µM (inactive)
GI50 (HT-29): 15 µM (inactive)
GI50 (IGROV-1): > 100 µM (inactive)
GI50 (K562): 39.1 µM (inactive)
GI50 (KM-20L2): 45.3 µM (inactive)
GI50 (KM12): 47.2 µM (inactive)
GI50 (LXFL 529): 33.7 µM (inactive)
GI50 (M14): 45.4 µM (inactive)
GI50 (M19-MEL): 32.3 µM (inactive)
GI50 (MOLT-4): 15.8 µM (inactive)
GI50 (Malme-3M): 34.8 µM (inactive)
GI50 (NCI-H226): 31.8 µM (inactive)
GI50 (NCI-H23): 54 µM (inactive)
GI50 (NCI-H460): 33 µM (inactive)
GI50 (NCI-H522): 38.5 µM (inactive)
GI50 (OVCAR-3): 55.5 µM (inactive)
GI50 (OVCAR-4): 76.6 µM (inactive)
GI50 (OVCAR-5): 20.6 µM (inactive)
GI50 (OVCAR-8): 15.6 µM (inactive)
GI50 (RPMI-8226): 27.4 µM (inactive)
GI50 (RXF 631): 45.8 µM (inactive)
GI50 (SF-268): 45.5 µM (inactive)
GI50 (SF-539): 37.8 µM (inactive)
GI50 (SK-MEL-28): 13.2 µM (inactive)
GI50 (SK-MEL-2): 23.9 µM (inactive)
GI50 (SK-MEL-5): > 10 µM (inactive)
GI50 (SK-OV-3): > 100 µM (inactive)
GI50 (SN12C): 39.1 µM (inactive)
GI50 (SNB-19): 47.6 µM (inactive)
GI50 (SNB-75): 64.9 µM (inactive)
GI50 (SR): 19.7 µM (inactive)
GI50 (SW-620): 33.3 µM (inactive)
GI50 (U-251): 19.4 µM (inactive)
GI50 (UACC-257): 21.7 µM (inactive)
GI50 (UACC-62): 55 µM (inactive)
GI50 (UO-31): 80.9 µM (inactive)
GI50 (XF498): 22.6 µM (inactive)
